Experimental data from PubChem BioAssay AID2202554 (NIEHS Division of Translational Toxicology (DTT)).
Results filed as inconclusive are left out. Calls of active or inactive are those of the source. How the calls were made is not given here. Residues, ends and D or L forms follow the SMILES beside them.

Tested on: S. typhimurium/E. coli reverse mutation, colony counts
Experiment: Bacterial reverse mutation test (aka Ames test) summary data
Outline: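 Revertant colony counts on plates, compared with untreated controls, after about two days of growth. Exposure with or without liver S9 (rat/hamster/mouse), dose range per strain, 20-min 37° C preincubation or direct plate incorporation. Strains: his⁻ Salmonella, trp⁻ E. coli WP2 uvrA pKM101.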

Row | SMILES | outcome
1 | COc1ccc([N+](=O)[O-])cc1N=Nc1c(O)c(C(=O)Nc2cccc([N+](=O)[O-])c2)cc2ccccc12 | active; positive
2 | CN(C)c1ccc(Cc2ccc(N(C)C)cc2)cc1 | active; positive
3 | Nc1ccc(N)c2ccccc12 | active; positive
4 | Nc1cc(Cl)ccc1Cl | inactive; negative
5 | Cc1cccc2c1ccc1ccccc12 | active; positive
6 | O=[N+]([O-])C(Br)(Br)Br | active; weakly positive
7 | CCC(C)C(C)CO (stereo unspecified) | inactive; negative
8 | Nc1ccc(Cl)cc1 | active; positive
9 | Cc1cccc(Br)c1 | inactive; negative
10 | O=[N+]([O-])C(Br)(CO)CO | inactive; negative
11 | C(=NC1CCCCC1)=NC1CCCCC1 | inactive; negative
12 | CCC=O | inactive; negative
13 | COC(=O)c1ccccc1O | active; weakly positive
14 | O=c1[nH]cnc2[nH]ncc12 | active; weakly positive
15 | Nc1ccc(Oc2ccc(N)cc2)cc1 | active; positive
16 | CC(C)=CCCC(C)CCO (stereo unspecified) | inactive; negative
17 | Nc1cc(S(=O)(=O)O)ccc1O | inactive; negative
18 | C=CC(=O)O | inactive; negative
19 | Clc1ccccn1 | active; positive
20 | Brc1c(Br)c(Br)c(Oc2c(Br)c(Br)c(Br)c(Br)c2Br)c(Br)c1Br | inactive; negative
21 | CCCCCCCC/C=C\CCCCCCCC(=O)OC | inactive; negative
22 | Cc1ccccc1C(=O)O | inactive; negative

Row | SMILES | outcome
23 | CC(=O)NNc1ccccc1 | active; positive
24 | CC(C)(c1ccc(OCC2CO2)cc1)c1ccc(OCC2CO2)cc1 (stereo unspecified) | active; positive
25 | C[S+](CC[C@H](N)C(=O)[O-])C[C@H]1O[C@@H](n2cnc3c(N)ncnc32)[C@H](O)[C@@H]1O (stereo partly specified) | inactive; negative
26 | COCCOCCOCCOC | active; positive
27 | CC(C)CCC[C@@H](C)[C@H]1CC[C@H]2[C@@H]3CC=C4C[C@@H](OC(=O)Cc5ccc(N(CCCl)CCCl)cc5)CC[C@]4(C)[C@H]3CC[C@]12C | inactive; negative
28 | CC(=O)c1nccs1 | inactive; negative
29 | C[CH2][Pb]([Cl])([CH2]C)[CH2]C | inactive; negative
30 | Cc1cc(C)cc([N+](=O)[O-])c1 | active; positive
31 | Cc1ccc(C(=O)O)cc1 | inactive; negative
32 | CCCCCCCCCCCCCC(=O)[O-].CCCCCCCCCCCCCC(=O)[O-].[Zn+2] | inactive; negative
33 | OCc1ccccc1 | inactive; negative
34 | CCCCCC=CC=CC=O | inactive; negative
35 | CC(C)=CCCC(C)=CC=O | inactive; negative
36 | O=C(O)c1ccc(S(=O)(=O)N(Cl)Cl)cc1 | active; positive
37 | O=[N+]([O-])c1ccccc1C(F)(F)F | inactive; negative
38 | CC(=O)C(C)=NO | inactive; negative
39 | Nc1cc([N+](=O)[O-])ccc1C(=O)O | active; positive
40 | O.O.O.O.O.O.O=S(=O)([O-])[O-].[Ni+2] | inactive; negative
41 | ClCCCCl | active; positive
42 | Nc1nc(=O)n([C@@H]2CS[C@H](CO)O2)cc1F | inactive; negative
43 | CCC(Cl)[N+](=O)[O-] (stereo unspecified) | active; positive
44 | Clc1ccc(C(c2ccc(Cl)cc2)C(Cl)Cl)cc1 | inactive; negative

Row | SMILES | outcome
45 | CCCCCON=O | active; positive
46 | Oc1ccccc1O | inactive; negative
47 | CCCCCCCCCCCCCCCCN | inactive; negative
48 | CCC(CO)[N+](=O)[O-] (stereo unspecified) | inactive; negative
49 | CC1=C(/C=C/C(C)=C/C=C/C(C)=C/C=O)C(C)(C)CCC1 | active; positive
50 | C=CCN=C=S | active; weakly positive
51 | CCCCc1ccc(N=Cc2ccc(OC)cc2)cc1 | active; positive
52 | ClC1=C(Cl)[C@]2(Cl)[C@H]3[C@H]([C@@H]4C=C[C@H]3C4)[C@@]1(Cl)C2(Cl)Cl | inactive; negative
53 | C=CCBr | active; positive
54 | C=CCOC(=O)CC(C)C | inactive; negative
55 | CC(=O)c1ccc(Cl)c(Cl)c1Cl | active; positive
56 | Cc1ccc(N(C)C)cc1 | inactive; negative
57 | Cc1cccc(OP(=O)(Oc2cccc(C)c2)Oc2cccc(C)c2)c1 | inactive; negative
58 | ClNc1nc(NCl)nc(NCl)n1 | inactive; negative
59 | C=CCOC(=O)C=C | inactive; negative
60 | CC(O)c1ccccc1 (stereo unspecified) | inactive; negative
61 | C=CC(=O)OCCCC | inactive; negative
62 | Cc1ccc(C)c(N)c1 | active; positive
63 | C=C(C)C(=O)OCC | inactive; negative
64 | CCOc1ccc(NC(C)=O)cc1[N+](=O)[O-] | active; positive
65 | NC(=O)c1cnccn1 | inactive; negative
66 | O=[N+]([O-])c1ccccc1CCO | active; positive

Row | SMILES | outcome
67 | O=C(O)c1c(Cl)cccc1Cl | inactive; negative
68 | ClSC(Cl)(Cl)Cl | active; positive
69 | O=C1CCCCCN1 | inactive; negative
70 | CCCOC(=O)c1cc(O)c(O)c(O)c1 | inactive; negative
71 | CCC(C)Nc1ccc(NC(C)CC)cc1 (stereo unspecified) | inactive; negative
72 | CN(C(=O)CN(CCO)CC(=O)N(C)C(C)(C)Cc1ccccc1)C(C)(C)Cc1ccccc1 | inactive; negative
73 | CCCCCCCC(=O)OCC(COC(=O)CCCCCCC)OC(=O)CCCCCCC | active; positive
74 | CCOP(=S)(OCC)OP(=S)(OCC)OCC | active; positive
75 | CS(=O)(=O)c1ccc(C(=O)C2C(=O)CCCC2=O)c([N+](=O)[O-])c1 | active; positive
76 | O=S1OCC2C(CO1)C1(Cl)C(Cl)=C(Cl)C2(Cl)C1(Cl)Cl (stereo unspecified) | inactive; negative
77 | CCCCC(CC)COP(OCC(CC)CCCC)OCC(CC)CCCC (stereo unspecified) | inactive; negative
78 | Cc1ccc(C)c([N+](=O)[O-])c1 | active; positive
79 | O=C(O)C(Cl)(Cl)Br | active; positive
80 | CCNc1ccccc1 | inactive; negative
81 | COC(=O)[C@H](Cc1ccccc1)NC(=O)[C@@H](N)CC(=O)O (H-Asp-Phe-OMe) | inactive; negative
82 | C=CCc1ccc(OC)c(OC)c1 | inactive; negative
83 | Cc1ncc[nH]1 | inactive; negative
84 | Cc1nc2ccc(Cl)cc2[nH]1 | active; positive
85 | NCCNCCNCCN | active; positive
86 | C=CC(=O)NCCNC(=O)C=C | active; positive
87 | CC(C)(C)C(=O)C1C(=O)c2ccccc2C1=O | inactive; negative
88 | c1ccc(OP(Oc2ccccc2)Oc2ccccc2)cc1 | inactive; negative

Row | SMILES | outcome
89 | O=c1ccc(=O)[nH][nH]1 | inactive; negative
90 | CCCCCCCCC1CO1 (stereo unspecified) | inactive; negative
91 | CCCCCCCCCCCCCCCCCCCC | inactive; negative
92 | CN1CCC(CN2c3ccccc3Sc3ccccc32)C1 (stereo unspecified) | inactive; negative
93 | Nc1ncnc2c1ncn2[C@H]1CC[C@@H](CO)O1 | active; positive
94 | CCCCCCCCCCCC(=O)O | inactive; negative
95 | Cc1c(N)cccc1[N+](=O)[O-] | active; positive
96 | Cc1ccccc1C=O | inactive; negative
97 | Cc1ccc(Cl)cc1N | inactive; negative
98 | NCCCCCCCCCCC(=O)O | inactive; negative
99 | CCCCCC(=O)OCC | inactive; negative
100 | ClC1=C(Cl)C2(Cl)C3C(Cl)C(Cl)CC3C1(Cl)C2(Cl)Cl (stereo unspecified) | inactive; negative
101 | N[C@H](Cc1ccccc1)C(=O)O | inactive; negative
102 | C[N+](C)(C)Cc1ccccc1 | inactive; negative
103 | COC(=O)CCCCC(=O)OC | inactive; negative
104 | CNN | inactive; negative
105 | Cc1cc(C)nc(NS(=O)(=O)c2ccc(N)cc2)n1 | inactive; negative
106 | CCCCOCCOCCOCc1cc2c(cc1CCC)OCO2 | inactive; negative
107 | CCCCCN | inactive; negative
108 | Cc1ccc(Br)cc1 | inactive; negative
109 | CC(=O)Nc1cccc(N)c1 | active; positive
110 | Cc1cc2nc(N)sc2cc1C | active; positive

Row | SMILES | outcome
111 | O=C(NC(S)c1nc2ccccc2s1)NC(S)c1nc2ccccc2s1 (stereo unspecified) | active; positive
112 | NCCO | inactive; negative
113 | O=C(O)CC(O)(CC(=O)OO)C(=O)O (stereo unspecified) | inactive; negative
114 | Nc1ccc(N)c(Cl)c1 | active; positive
115 | Cc1cccc(C)c1[N+](=O)[O-] | active; weakly positive
116 | ClCCBr | active; positive
117 | CCCCCN(CCCCC)CCCCC | inactive; negative
118 | O=C1c2ccccc2-c2ccc3c4c(ccc1c24)-c1ccccc1C3=O | inactive; negative
119 | CNC(=O)ON=CC(C)(C)SC | inactive; negative
120 | CN(C)C(=S)N(C)C | inactive; negative
121 | Oc1ccc(Cl)cc1Cc1cc(Cl)ccc1O | active; positive
122 | NC(=O)CCCCC(N)=O | inactive; negative
123 | N#CSCSc1nc2ccccc2s1 | active; positive
124 | CCCC[n+]1ccccc1 | inactive; negative
125 | BrC(Br)Br | active; positive
126 | O=C(OCC1CO1)c1cccc(C(=O)OCC2CO2)c1 (stereo unspecified) | active; positive
127 | NC(=O)c1cccc([N+](=O)[O-])c1 | active; positive
128 | CCCBr | inactive; negative
129 | O=Nc1ccc(Nc2ccccc2)cc1 | active; weakly positive
130 | CCCCC(CC)COC(=O)CCCCC(=O)O (stereo unspecified) | inactive; negative
131 | CC(=O)Nc1ccccc1C | active; positive
